Assay results from ChEMBL document CHEMBL3822440, “Semi-synthesis and antiproliferative evaluation of PEGylated pentacyclic triterpenes” (Eur J Med Chem, 2016).
pIC50: −log10 of the molar value.

Tests used:
[1] = system: HT-29; test: Potency index, ratio of maslinic acid IC50 to compound IC50 for human HT-29 cells; type: functional
[2] = system: HT-29; test: Cytotoxicity against human HT-29 cells assessed as growth inhibition after 72 hrs by MTT assay; type: functional, cell-based; settings: HT-29, 72 h
[3] = system: B16-F10; test: Potency index, ratio of maslinic acid IC50 to compound IC50 for mouse B16F10 cells; type: functional
[4] = Cytotoxicity against mouse B16F10 cells assessed as growth inhibition after 72 hrs by MTT assay; type: functional, cell-based; settings: B16-F10, 72 h
[5] = system: HepG2; test: Cytotoxicity against human HepG2 cells assessed as growth inhibition after 72 hrs by MTT assay; type: functional, cell-based; settings: HepG2, 72 h
[6] = system: HepG2; test: Potency index, ratio of maslinic acid IC50 to compound IC50 for human HepG2 cells; type: functional
[7] = system: HT-29; test: Induction of apoptosis in human HT-29 cells assessed as early apoptotic cells at cytotoxic IC50 after 72 hrs by Annexin V-FITC/propidium iodide staining based flow cytometry (reference value: 1.65 +/- 0.07%); type: functional
[8] = system: HepG2; test: Disruption of mitochondrial membrane potential in human HepG2 cells assessed as rhodamine123 positive cells at cytotoxic IC50 after 72 hrs by propidium iodide staining based fluorescence spectroscopic analysis (reference value: 88.3 +/- 8.87%); type: functional
[9] = system: HT-29; test: Cell cycle arrest in human HT-29 cells assessed as accumulation at S phase at cytotoxic IC50 after 72 hrs by propidium iodide staining based flow cytometry (reference value: 48.31 +/- 1.49%); type: functional
[10] = Induction of apoptosis in mouse B16F10 cells assessed as early apoptotic cells at cytotoxic IC50 after 72 hrs by Annexin V-FITC/propidium iodide staining based flow cytometry (reference value: 0.75 +/- 0.07%); type: functional, B16-F10
[11] = Cell cycle arrest in mouse B16F10 cells assessed as accumulation at S phase at cytotoxic IC50 after 72 hrs by propidium iodide staining based flow cytometry (reference value: 48.31 +/- 0.74%); type: functional, B16-F10
[12] = system: HT-29; test: Disruption of mitochondrial membrane potential in human HT-29 cells assessed as rhodamine123 positive cells at cytotoxic IC50 after 72 hrs by propidium iodide staining based fluorescence spectroscopic analysis (reference value: 94.25 +/- 0.35%); type: functional
[13] = Cell cycle arrest in mouse B16F10 cells assessed as accumulation at G0/G1 phase at cytotoxic IC50 after 72 hrs by propidium iodide staining based flow cytometry (reference value: 50.69 +/- 0.61%); type: functional, B16-F10
[14] = system: HepG2; test: Induction of apoptosis in human HepG2 cells assessed as necrotic cells at cytotoxic IC50 after 72 hrs by Annexin V-FITC/propidium iodide staining based flow cytometry (reference value: 0.1 +/- 0.01%); type: functional
[15] = system: HepG2; test: Cell cycle arrest in human HepG2 cells assessed as accumulation at S phase at cytotoxic IC50 after 72 hrs by propidium iodide staining based flow cytometry (reference value: 54.71 +/- 2.37%); type: functional
[16] = system: HT-29; test: Potency index, ratio of oleanolic acid IC50 to compound IC50 for human HT-29 cells; type: functional
[17] = system: HT-29; test: Induction of apoptosis in human HT-29 cells assessed as live cells at cytotoxic IC50 after 72 hrs by Annexin V-FITC/propidium iodide staining based flow cytometry (reference value: 96.65 +/- 0.78%); type: functional
[18] = Induction of apoptosis in mouse B16F10 cells assessed as live cells at cytotoxic IC50 after 72 hrs by Annexin V-FITC/propidium iodide staining based flow cytometry (reference value: 97.55 +/- 0.5%); type: functional, B16-F10
[19] = system: HT-29; test: Induction of apoptosis in human HT-29 cells assessed as late apoptotic cells at cytotoxic IC50 after 72 hrs by Annexin V-FITC/propidium iodide staining based flow cytometry (reference value: 0.65 +/- 0.35%); type: functional
[20] = Cell cycle arrest in mouse B16F10 cells assessed as accumulation at G2/M phase at cytotoxic IC50 after 72 hrs by propidium iodide staining based flow cytometry (reference value: 1.01 +/- 0.13%); type: functional, B16-F10
[21] = system: HepG2; test: Induction of apoptosis in human HepG2 cells assessed as live cells at cytotoxic IC50 after 72 hrs by Annexin V-FITC/propidium iodide staining based flow cytometry (reference value: 99.55 +/- 0.07%); type: functional
[22] = system: HepG2; test: Disruption of mitochondrial membrane potential in human HepG2 cells assessed as rhodamine123 negative cells at cytotoxic IC50 after 72 hrs by propidium iodide staining based fluorescence spectroscopic analysis (reference value: 11.7 +/- 6.8%); type: functional
[23] = Induction of apoptosis in mouse B16F10 cells assessed as necrotic cells at cytotoxic IC50 after 72 hrs by Annexin V-FITC/propidium iodide staining based flow cytometry (reference value: 0.75 +/- 0.07%); type: functional, B16-F10
[24] = system: HT-29; test: Cell cycle arrest in human HT-29 cells assessed as accumulation at G2/M phase at cytotoxic IC50 after 72 hrs by propidium iodide staining based flow cytometry (reference value: 6.23 +/- 1.7%); type: functional
[25] = system: HepG2; test: Potency index, ratio of oleanolic acid IC50 to compound IC50 for human HepG2 cells; type: functional
[26] = system: HT-29; test: Disruption of mitochondrial membrane potential in human HT-29 cells assessed as rhodamine123 negative cells at cytotoxic IC50 after 72 hrs by propidium iodide staining based fluorescence spectroscopic analysis (reference value: 5.8 +/- 0.42%); type: functional
[27] = system: B16-F10; test: Potency index, ratio of oleanolic acid IC50 to compound IC50 for mouse B16F10 cells; type: functional
[28] = system: HT-29; test: Cell cycle arrest in human HT-29 cells assessed as accumulation at G0/G1 phase at cytotoxic IC50 after 72 hrs by propidium iodide staining based flow cytometry (reference value: 55.18 +/- 0.22%); type: functional
[29] = system: HepG2; test: Induction of apoptosis in human HepG2 cells assessed as late apoptotic cells at cytotoxic IC50 after 72 hrs by Annexin V-FITC/propidium iodide staining based flow cytometry relative to control; type: functional
[30] = system: HepG2; test: Induction of apoptosis in human HepG2 cells assessed as early apoptotic cells at cytotoxic IC50 after 72 hrs by Annexin V-FITC/propidium iodide staining based flow cytometry (reference value: 0.3 +/- 0.01%); type: functional
[31] = system: HepG2; test: Cell cycle arrest in human HepG2 cells assessed as accumulation at G0/G1 phase at cytotoxic IC50 after 72 hrs by propidium iodide staining based flow cytometry (reference value: 39.41 +/- 1.56%); type: functional
[32] = Disruption of mitochondrial membrane potential in mouse B16F10 cells assessed as rhodamine123 positive cells at cytotoxic IC50 after 72 hrs by propidium iodide staining based fluorescence spectroscopic analysis (reference value: 95.6 +/- 0.57%); type: functional, B16-F10
[33] = system: HepG2; test: Cell cycle arrest in human HepG2 cells assessed as accumulation at G2/M phase at cytotoxic IC50 after 72 hrs by propidium iodide staining based flow cytometry (reference value: 8.47 +/- 2.55%); type: functional
[34] = Induction of apoptosis in mouse B16F10 cells assessed as late apoptotic cells at cytotoxic IC50 after 72 hrs by Annexin V-FITC/propidium iodide staining based flow cytometry (reference value: 0.75 +/- 0.21%); type: functional, B16-F10
[35] = Disruption of mitochondrial membrane potential in mouse B16F10 cells assessed as rhodamine123 negative cells at cytotoxic IC50 after 72 hrs by propidium iodide staining based fluorescence spectroscopic analysis (reference value: 4.45 +/- 0.64%); type: functional, B16-F10
[36] = system: HT-29; test: Induction of apoptosis in human HT-29 cells assessed as necrotic cells at cytotoxic IC50 after 72 hrs by Annexin V-FITC/propidium iodide staining based flow cytometry (reference value: 1.05 +/- 0.35%); type: functional

| SMILES | Ratio IC50 [1] | pIC50 [2] | Ratio IC50 [3] | pIC50 [4] | pIC50 [5] | Ratio IC50 [6] | Activity [7] [%] | Activity [8] [%] | Activity [9] [%] | Activity [10] [%] | Activity [11] [%] | Activity [12] [%] | Activity [13] [%] | Activity [14] [%] | Activity [15] [%] | Ratio IC50 [16] | Activity [17] [%] | Activity [18] [%] | Activity [19] [%] | Activity [20] [%] | also measured |
| --- | --- | --- | --- | --- | --- | --- | --- | --- | --- | --- | --- | --- | --- | --- | --- | --- | --- | --- | --- | --- | --- |
| CC1(C)CC[C@]2(C(=O)OCc3ccccc3)CC[C@]3(C)C(=CC[C@@H]4[C@@]5(C)C[C@@H](O)[C@H](O)C(C)(C)[C@@H]5CC[C@]43C)[C@@H]2C1 [BENZYL MASLINATE] | 2.1 | 4.82 | 1 | 4.44 | 4.77 | 5.8 | – | – | – | – | – | – | – | – | – | – | – | – | – | – | – |
| COCCOCCOCC(=O)O[C@H]1CC[C@]2(C)[C@H]3CC=C4[C@@H]5CC(C)(C)CC[C@]5(C(=O)O)CC[C@@]4(C)[C@]3(C)CC[C@H]2C1(C)C | – | 4.87 | – | 4.76 | 4.76 | – | 34.7 | 13.95 | 49.98 | 6.8 | 25.44 | 88.65 | 74.28 | 0.2 | 45.44 | 31.9 | 51.85 | 52.75 | 13.45 | 0.28 | Activity [21]: 43.5%; Activity [22]: 86.05%; Activity [23]: 0.35%; Activity [24]: 0%; Ratio IC50 [25]: 12.1; Activity [26]: 11.35%; Ratio IC50 [27]: 6.2; Activity [28]: 63.47%; Activity [29]: 17.7%; Activity [30]: 38.65%; Activity [31]: 38.88%; Activity [32]: 79.45%; Activity [33]: 14.18%; Activity [34]: 39.6%; Activity [35]: 20.65%; Activity [36]: 0% |
| CC1(C)CC[C@]2(C(=O)NCCCOCCOCCOCCCN)CC[C@]3(C)C(=CC[C@@H]4[C@@]5(C)CC[C@H](O)C(C)(C)[C@@H]5CC[C@]43C)[C@@H]2C1 | – | 5.45 | – | 5.42 | 6.66 | – | 19.7 | 80.45 | 4.78 | 59.65 | 31.33 | 23.75 | 63.89 | 0.35 | 46.97 | 120.1 | 72.45 | 27.55 | 7.45 | 4.78 | Activity [21]: 41.35%; Activity [22]: 19.6%; Activity [23]: 0%; Activity [24]: 8.12%; Ratio IC50 [25]: 962.7; Activity [26]: 76.3%; Ratio IC50 [27]: 28.1; Activity [28]: 87.11%; Activity [29]: 22.45%; Activity [30]: 35.9%; Activity [31]: 52.7%; Activity [32]: 20.75%; Activity [33]: 0.34%; Activity [34]: 12.85%; Activity [35]: 79.3%; Activity [36]: 0.25% |
| CC1(C)CC[C@]2(C(=O)NCCCOCCOCCOCCCNC(=O)[C@]34CCC(C)(C)C[C@H]3C3=CC[C@@H]5[C@@]6(C)C[C@@H](O)[C@H](O)C(C)(C)[C@@H]6CC[C@@]5(C)[C@]3(C)CC4)CC[C@]3(C)C(=CC[C@@H]4[C@@]5(C)C[C@@H](O)[C@H](O)C(C)(C)[C@@H]5CC[C@]43C)[C@@H]2C1 | 0.4 | 4.08 | 0.3 | 3.93 | 4.01 | 1 | – | – | – | – | – | – | – | – | – | – | – | – | – | – | – |
| CC(=O)O[C@@H]1C[C@]2(C)[C@H]3CC=C4[C@@H]5CC(C)(C)CC[C@]5(C(=O)NCCCOCCOCCOCCCNC(=O)[C@]56CCC(C)(C)C[C@H]5C5=CC[C@@H]7[C@@]8(C)C[C@@H](OC(C)=O)[C@H](OC(C)=O)C(C)(C)[C@@H]8CC[C@@]7(C)[C@]5(C)CC6)CC[C@@]4(C)[C@]3(C)CC[C@H]2C(C)(C)[C@H]1OC(C)=O | 0.5 | 4.19 | 0.3 | 3.97 | 3.95 | 0.9 | – | – | – | – | – | – | – | – | – | – | – | – | – | – | – |
| CC(=O)O[C@@H]1C[C@]2(C)[C@H]3CC=C4[C@@H]5CC(C)(C)CC[C@]5(C(=O)NCCCOCCOCCOCCCN)CC[C@@]4(C)[C@]3(C)CC[C@H]2C(C)(C)[C@H]1OC(C)=O | 0.2 | 3.88 | 0.3 | 3.98 | 3.75 | 0.6 | – | – | – | – | – | – | – | – | – | – | – | – | – | – | – |
